The values that follow are results of earlier work, collected in patent publication US10221122B2, “Enantiospecific process for the preparation of (R) and (S) enantiomers of sex pheromonoes of the long tailed mealy bug” (Council of Scientific & Industrial Research, priority 2015, dated 2019).

Like-named read-outs stand apart in the source and are kept apart here.

For data set [1], the system named is male mealybugs. As to conditions: attraction lasting three months; reported by Miller group.
For data set [2], the system named is American cockroach. To be noted: J. Chem. Ecol. 1983, 9(3), 433-48.
The subject of data set [3] is males of the American cockroach. To be noted: Agric. Biol. Chem. 1979, 43(9), 1967-1974.
In data set [4] the test system is male mealybugs. To be noted: field trials; J. Org. Chem. 2013, 78, 6281-6284.

Turning to `CC(=O)OCCC1(C)C=CCC1(C)C` (racemic) [racemic form of the pheromone], in data set [1], the “amount sufficient to attract male mealybugs” value was 25 µg.
In the case of `CC(=O)OC1CC2CCC1(C)C2(C)C` (single isomer, unassigned; (+)) [(+)-bornyl acetate], the sex pheromonal activity result in data set [2] (at 0.05 mg) is “showed the activity”. Besides, in data set [3], the “excitation of males showing the typical sexual response” value was “excite males of the American cockroach”.
With `CCC(=O)OC1CC2CCC1(C)C2(C)C` (single isomer, unassigned; (-)) [(−)-bornyl propionate], the sex pheromonal activity entry in data set [2] (at 0.5 mg dose) is reported as “weak activity”.
With `CC(=O)OCC[C@]1(C)C=CCC1(C)C` [(R)-(−)-enantiomer, 2-[(1R)-1,5,5-trimethylcyclopent-2-en-1-yl]ethyl acetate], the “attractiveness to male mealybugs” value in data set [4] is given as “neither attractive nor inhibitory”.
Regarding `CC(=O)OCC[C@@]1(C)C=CCC1(C)C` [(S)-(+)-enantiomer, 2-[(1S)-1,5,5-trimethylcyclopent-2-en-1-yl]ethyl acetate], in data set [4], the “attractiveness to male mealybugs” value is on record as “highly attractive”.
`CCC(=O)OC1CC2CCC1(C)C2(C)C` (stereo not shown) [Ic]: the sex pheromonal activity entry in data set [2] (at 0.05 mg) is given as “showed the activity”.
